Laboratory results taken from US20210145801A1, “THERAPY FOR PROTEIN MISFOLDING DISEASE” (WREN THERAPEUTICS LIMITED, priority 2018, published 2021).
Entries after “also recorded” stand apart in the source; their conditions may differ.

Molecular target: T1, Aβ plaques in AD worms (GMC101) (Homo sapiens, UniProt P05067)
T1 construct: unc-54p::A-beta-1-42 expresses full-length human Aβ42 peptide in body wall muscle cells; expressed in transfected cells; host or cells: C. elegans strain GMC101 (dvIs100), body wall muscle cells
T1 sequence (P05067 672-713 limits assumed): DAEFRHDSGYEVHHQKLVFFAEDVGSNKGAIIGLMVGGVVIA
Assay: NIAD-4 staining of plaques load in living AD worms
Assay type: in vivo, C. elegans
Description: GMC101 dvIs100 [unc-54p::A-beta-1-42::unc-54 3′UTR+mtl-2p::GFP]. mtl-2p::GFP produces constitutive expression of GFP in intestinal cells. unc-54p::A-beta-1-42 expresses full-length human Aβ42 peptide in body wall muscle cells that aggregates in vivo. Shifting L4 or young adult animals from 20° to 24° C. causes paralysis (G. McColl et al., Utility of an improved model of amyloid-beta (Aβ1-42) toxicity in Caenorhabditis elegans for drug screening for Alzheimer's disease. Mol Neurodegener. 7, 57 (2012));
Briefly, Netoglitazone stocks (5 mM in 100% DMSO) were used at an appropriate concentration to seed 9-cm NGM plates. Plates were then placed in a laminar flow hood at room temperature (22° C.) for up to 4 hours to dry. […]
Plaques staining was carried out as previously described (J. Habchi et al. (2016); M. Perni et al., A natural product inhibits the initiation of α-synuclein aggregation & suppresses its toxicity. Proc. Natl. Acad. Sci. U.S.A. 114, E1009-E1017 (2017)). […] Images were captured with a Zeiss Axio Observer D1 fluorescence microscope (Carl Zeiss Microscopy GmbH) with a 20× objective and a 49004 ET-CY3/TRITC filter (Chroma Technology Corp). Fluorescence intensity was calculated using ImageJ software (National Institutes of Health) and then normalized as the corrected total cell fluorescence. […] Statistical significance was determined using t tests.

O=C1NC(=O)C(Cc2ccc3cc(OCc4ccccc4F)ccc3c2)S1 (centres unmarked) [Netoglitazone]
Plaques load in AD worms (NIAD-4 fluorescence) (0.5 μM administered at L4, day 6 of adulthood): significantly decrease the plaques load; also recorded: Decrease in the plaques load in AD worms | Plaques load in AD worms after late administration (administered at D3 of adulthood, read at D6): significant decrease of the plaques load at D6; also recorded: decreases the plaques load at D6 of adulthood
